This note sets out measurements from PubChem BioAssay (NCI).

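A five-concentration, 48-hour dose response in 96-well plates underlies each endpoint, interpolated linearly between surrounding concentrations. TGI: concentration producing complete growth inhibition.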

Test systems include A549 NSCLC; CCRF-CEM leukemia; COLO 205 colon; HCT-15 colon; HS 578T breast; HT29 colon; KM12 colon; LOX IMVI melanoma; NCI-H522 lung; PC-3 prostate; RPMI-8226 leukemia; SF-268 CNS; SF-295 CNS; SK-MEL-2 melanoma; SK-MEL-5 melanoma; SN12C renal; SNB-19 CNS; SR leukemia; U251 CNS; NCI-H226 lung.
What all share (assay): inhibition of tumour cell growth, NCI panel, 48 h

Take `COc1ccc(C/C=C(\C)CCO)cc1`: the TGI in the experiment on A549 NSCLC, in the experiment on CCRF-CEM leukemia, with COLO 205 colon, with HCT-15 colon, in the experiment with HS 578T breast and in the experiment on HT29 colon was > 100 µM throughout. Besides, the TGI in the experiment on KM12 colon is > 100 µM; with LOX IMVI melanoma, > 100 µM; in the experiment on NCI-H522 lung it was > 100 µM; in the experiment with PC-3 prostate it was > 100 µM; in the experiment on RPMI-8226 leukemia, 89.8 µM; in the experiment with SF-268 CNS it was > 100 µM. The TGI in the experiment on SF-295 CNS, in the experiment with SK-MEL-2 melanoma, in the experiment with SK-MEL-5 melanoma, in the experiment on SN12C renal, with SNB-19 CNS and in the experiment with SR leukemia was > 100 µM in each case. In the experiment with U251 CNS, the TGI is > 100 µM.
Consider `COc1c(C)c(C/C=C(\C)CC/C=C(\C)CC/C=C(\C)CC/C=C(\C)CCC=C(C)C)c(OC)c(OC)c1OC`, for which the TGI is 48.1 µM with A549 NSCLC; 53.8 µM in the experiment on CCRF-CEM leukemia; > 100 µM with COLO 205 colon; > 100 µM with HCT-15 colon; > 100 µM in the experiment with HS 578T breast; > 100 µM in the experiment with HT29 colon. Moreover, the TGI in the experiment on KM12 colon is 29.1 µM; in the experiment with LOX IMVI melanoma, 33.7 µM; in the experiment on NCI-H522 lung it was 31.4 µM; with PC-3 prostate, > 100 µM; with SF-268 CNS, 39.4 µM; in the experiment on SF-295 CNS it was 44.2 µM. The TGI was > 100 µM with SK-MEL-2 melanoma; 38.1 µM in the experiment with SK-MEL-5 melanoma; 52.7 µM with SN12C renal; > 100 µM in the experiment on SNB-19 CNS; 54.7 µM in the experiment on SR leukemia; > 100 µM in the experiment on U251 CNS.
For the compound `CSc1c(C(N)=S)c(N)nn1-c1ccccc1`, the TGI with A549 NSCLC, in the experiment on COLO 205 colon, in the experiment with HCT-15 colon, in the experiment on HS 578T breast, in the experiment with HT29 colon and in the experiment with KM12 colon was > 100 µM throughout. The TGI in the experiment on LOX IMVI melanoma, with NCI-H226 lung, in the experiment on NCI-H522 lung, in the experiment with PC-3 prostate, in the experiment with RPMI-8226 leukemia and with SF-268 CNS was > 100 µM in each case. For the same compound, the TGI in the experiment with SK-MEL-2 melanoma, in the experiment with SK-MEL-5 melanoma, with SN12C renal, with SNB-19 CNS, in the experiment on SR leukemia and with U251 CNS was > 100 µM throughout.
For `COC(=O)c1ccc(Oc2nc3ccc(C(F)(F)F)cc3nc2-c2ccccc2)cc1`, the TGI in the experiment with A549 NSCLC, in the experiment on CCRF-CEM leukemia, with COLO 205 colon, in the experiment with HCT-15 colon, in the experiment with HS 578T breast and in the experiment on HT29 colon was > 100 µM each time. For the same compound, the TGI with KM12 colon, with LOX IMVI melanoma, with NCI-H226 lung, in the experiment with NCI-H522 lung, in the experiment on PC-3 prostate and with RPMI-8226 leukemia was > 100 µM in each case. In addition, the TGI in the experiment with SF-268 CNS, in the experiment with SF-295 CNS, in the experiment with SK-MEL-5 melanoma, with SN12C renal, with SR leukemia and in the experiment on U251 CNS was > 100 µM each time.
`Cc1cn(CC2(CO)CCC2)c(=O)[nH]c1=O`: the TGI in the experiment on A549 NSCLC, in the experiment with CCRF-CEM leukemia, with COLO 205 colon, in the experiment with HCT-15 colon, in the experiment on HS 578T breast and in the experiment with HT29 colon was > 100 µM each time. Moreover, the TGI with KM12 colon, in the experiment with LOX IMVI melanoma, with NCI-H226 lung, with NCI-H522 lung, in the experiment on PC-3 prostate and in the experiment on RPMI-8226 leukemia was > 100 µM throughout. Besides, the TGI with SF-295 CNS, in the experiment on SK-MEL-2 melanoma, with SK-MEL-5 melanoma, with SN12C renal, with SR leukemia and in the experiment on U251 CNS was > 100 µM throughout.
Take `COc1cc(/C=C2\N=C(c3ccccc3)N(c3nc4ccccc4s3)C2=O)cc(OC)c1OC`: the TGI in the experiment with A549 NSCLC, in the experiment with HCT-15 colon, in the experiment with HS 578T breast, in the experiment with HT29 colon, with KM12 colon and with LOX IMVI melanoma was > 100 µM in each case. Also, the TGI is > 100 µM in the experiment on NCI-H226 lung; 35.8 µM in the experiment with NCI-H522 lung; > 100 µM in the experiment on PC-3 prostate; 16.7 µM with RPMI-8226 leukemia; > 100 µM in the experiment with SF-268 CNS; > 100 µM in the experiment on SF-295 CNS. Also, the TGI in the experiment with SK-MEL-2 melanoma was > 100 µM; in the experiment with SK-MEL-5 melanoma, > 100 µM; with SN12C renal, 82.4 µM; with SNB-19 CNS it was > 100 µM; in the experiment with SR leukemia, 42.5 µM; in the experiment with U251 CNS, > 100 µM.
In the case of `COC(=O)Cc1cccc2c(=O)c(S(=O)(=O)NC(=O)Nc3ccc(Cl)cc3)c(-c3ccccc3)oc12`, the TGI in the experiment with A549 NSCLC, in the experiment on CCRF-CEM leukemia, in the experiment with COLO 205 colon, in the experiment on HCT-15 colon, with HS 578T breast and in the experiment on HT29 colon was > 100 µM throughout. Moreover, the TGI in the experiment on KM12 colon is > 100 µM; in the experiment with LOX IMVI melanoma, > 100 µM; with NCI-H226 lung it was > 100 µM; in the experiment with NCI-H522 lung, 38.6 µM; in the experiment on PC-3 prostate it was > 100 µM; in the experiment on SF-268 CNS it was > 100 µM. For the same compound, the TGI in the experiment on SF-295 CNS, with SK-MEL-5 melanoma, in the experiment with SN12C renal, with SNB-19 CNS, with SR leukemia and in the experiment on U251 CNS was > 100 µM throughout.
As to `Nc1ccc2nc3n(c2c1)C(c1c(F)cccc1F)SC3` (stereo unspecified), the TGI with A549 NSCLC, with CCRF-CEM leukemia, with COLO 205 colon, with HCT-15 colon, in the experiment on HS 578T breast and with HT29 colon was > 100 µM throughout. Moreover, the TGI in the experiment on KM12 colon, with LOX IMVI melanoma, in the experiment on NCI-H522 lung, with PC-3 prostate, in the experiment on RPMI-8226 leukemia and in the experiment with SF-268 CNS was > 100 µM in each case. The TGI in the experiment with SF-295 CNS, in the experiment on SK-MEL-2 melanoma, in the experiment with SK-MEL-5 melanoma, with SN12C renal, in the experiment on SNB-19 CNS and with SR leukemia was > 100 µM in each case. The TGI with U251 CNS was > 100 µM.
